Measurements taken from publication PMC3940891, “Transient Overexpression of adh8a Increases Allyl Alcohol Toxicity in Zebrafish Embryos” (PLoS ONE, 2014).
Values after ≈ are worked out from the molar mass of the structure shown. “Also recorded” adds a separate entry of the source. Read-outs that look alike come from different tables or passages of the source.

Experiments:
[1] = Zebrafish embryo test after microinjection of gfp, adh8a, adh8b or adh8a/b mRNA; format: in vivo, zebrafish (Danio rerio); conditions: OBI, zebrafish, in vivo, other: static waterborne exposure in exposure medium, exposure 8-56 h, with chorion, crystallization dish, strain OBI
Method: (§1) The zebrafish embryo test was performed with few modifications according to a standard operation procedure and a static exposure setup without renewal of exposure solutions (ISO 15088, 2006). The following chemicals were used: Allyl alcohol (CAS 107-18-6, purity 99.8%, Sigma-Aldrich, Deisenhofen, Germany), acrolein (CAS 107-02-8, purity ≥99.0%, Sigma-Aldrich, Deisenhofen, Germany), 4-Nitrophenol (CAS 100-02-7, PESTANAL, analytical standard, Sigma-Aldrich, Deisenhofen, Germany), and ethanol (CAS 64-17-5, purity ≥ 99.5%, Carl Roth, Germany). Stock solutions were prepared for each experiment by adding the appropriate amount for the highest test concentration to the exposure media (294.0 mg/L CaCl2*2H2O, 123.3 mg/L MgSO4*7H2O, 64.7 mg/L NaHCO3, 5.7 mg/L KCl). The solutions were prepared one day before the experiment in 100 ml closed graduated flasks and were stirred over night for approximately 14 h. Lower concentrations were obtained by serial dilutions. Fertilized eggs (embryos at 4–32 cell stage) were transferred by a pipette to 24-well plates (1 embryo per well, 10 wells per exposure concentration, Cellstar Greiner Bio-One, Frickenhausen, Germany) or crystallization glass dishes (80 mm diameter, 10–20 embryos per vial and 30 ml of exposure medium), respectively. Exposures were performed in independent triplicates on different days for 48 h from 2-50 hpf (hours post fertilization), 24–72 hpf, and 72–120 hpf. For the 24–72 hpf exposure, part of the embryos were manually dechorionated using forceps. […] At either 2, 8, 24 or 72 hpf the medium was completely removed and replaced by exposure media containing different concentrations of allyl alcohol (2 ml per well or 30 ml per crystallization dish, respectively). The Henry's law coefficients of the test chemicals (allyl alcohol: 4.99*10^−6, ethanol: 5.62*10^−6, 4-nitrophenol: 4.15*10^−10, acrolein: 1.22*10^−4; atm*m^3/mol) indicate a weak volatility for ethanol, allyl alcohol and acrolein. Therefore, in order to reduce potential evaporation, 24-well plates were covered with an adhesive foil; crystallization dishes were covered with a household plastic wrap and watch glasses. For comparison of the LC50 at different stages and the effect of dechorionation, exposure was performed in 24-well plates. For gene expression analysis and microinjection experiments crystallization dishes were used for exposure.
(§2) After 48 h of exposure referring to 50, 72 or 120 hpf stages, the number of dead embryos was counted. Dead embryos were detected according to the criteria given in the ISO standard; i.e., either coagulation, missing heartbeat, failure to develop somites or a lack of detachment of the tail-bud from the yolk sac were considered as indicators of lethality.
(§3) Injection needles were pulled from borosilicate glass capillary tubes with filament (GC100F-10; Warner Instruments, LLC, Hamden, CT) using a Narishige micropipette puller (Tokyo, Japan). Embryos were injected with the Eppendorf FemtoJet (Hamburg, Germany) through the chorion into the yolk compartment at the one-cell stage.
(§4) Plasmids with either the cDNA sequence of adh8a or adh8b were purchased from ImaGenes (Berlin, Germany, clone numbers IRBOp991G0334D for adh8a and IRBOp991F02101D for adh8b). The GFP open reading frame was cloned into the pCS2p+ Vector. For synthesis of capped mRNAs, adh8 plasmids were cut with XhoI and pCS2P+GFP was cut with KpnI. 5′ capped mRNA was synthesized with the mMessage Machine SP6 Kit (Life Technologies/Ambion, Darmstadt, Germany) according to the manufacturer's instructions. Injected mRNA concentration was 20–50 ng/µl. Phenol red was added to the RNA samples before injection (0.1% final concentration) in order to allow tracking of successful injections.
(§5) The LC50 values ± asymmetric 95% confidence intervals were calculated using the software JMP (SAS, Cary, NC) using the Hill-slope equation for modeling of concentration-response curves: [drawing 1] […]

[2] = tested on: gfp, adh8a, adh8b mRNA injected zebrafish embryos; assay: as above; format: in vivo, zebrafish (Danio rerio); conditions: for increase in acute toxicity in response to injection of adh8 mRNA: gfp, adh8a, adh8b, adh8a/b mRNA injected embryos
Method: as §1, §2, §3, §4, §5

fathead minnow = conditions: cited from earlier work; for LC50: fathead minnow ref 27
zebrafish embryo = conditions: cited from earlier work
[3] = source not given; cited from earlier work
zebrafish embryos = assay: Zebrafish embryo test (acute lethality, 48 h static exposure), non-injected embryos; format: in vivo, zebrafish (Danio rerio)
Method: as §1, §2
The LC50 values ± asymmetric 95% confidence intervals were calculated using the software JMP (SAS, Cary, NC) using the Hill-slope equation for modeling of concentration-response curves: [drawing 1]
Min and Max were set to 0 and 100%, respectively. x and y represented the nominal exposure concentration and the survival rate (percentage).

[4] = Quantification of internal allyl alcohol concentration in mRNA-injected embryos by HS-GC-MS; format: in vivo, zebrafish (Danio rerio)
Method: 50 injected embryos were exposed from 8 hpf to 26 hpf with 0.5 or 1 mg/L allyl alcohol. At 26 hpf embryos were manually dechorionated using forceps and transferred into fresh 20 ml glass vials. The exposure medium was removed and embryos were rinsed twice with 2 ml ISO water for 30 sec, transferred into GC-MS headspace vials (Agilent Technologies, Böblingen, Germany). After removal of remaining fluid by using a microliter pipette the vials were closed and embryos were frozen at −20°C for 10 min. Subsequently, embryos were homogenized by 5 min sonication in an ultrasonic bath (Sonorex RK 512 H; Bandelin Electronic, 35 kHz). Chemical analyses were performed immediately after sonication using an Agilent 7890A gas chromatograph with headspace sampler G1888 (Agilent Technologies, Böblingen, Germany). The headspace oven temperature for equilibration of samples was set to 48°C for 10 min. The compound separation was performed using a capillary column (60 m×0.25 i.d.) with a nonpolar stationary phase HP1 (thickness 1.00 µm). Ultra high purity helium was used as carrier gas. Mass spectra were derived with Agilent 5975C inert XL MSD and Triple Axis Detector (Agilent Technologies,) in electron impact ionization mode 70eV. The detector conditions were: ion source temperature 230°C and quadrupole temperature 150°C. The column oven temperature program involved an initial temperature of 45°C for 1 min, an increase at 15°C/min to 150°C (held for 2 min), then an increase at 65°C/min to 250°C (held 0.5 min). The mass spectrometer was operated in selected ion monitoring (SIM) mode for calibration and analyte quantification in samples.
For the allyl alcohol calibration the following concentrations were used: 8.5; 42.5; 85; 425; 850 and 1700 µg/L. 5 µl of the respected concentration were transferred into a headspace vial and directly used for HS-GC-MS analysis. The calibration curve was generated based on peak areas. Exposure concentrations were determined for each replicate at the start of the exposure.

[5] = tested on: adh8a mRNA injected zebrafish embryos; assay: Time-lapse recording of adh8a mRNA injected embryos exposed to allyl alcohol; format: in vivo; conditions: 5 mg/L allyl alcohol, 24-wells
Method: For time lapse recording of zebrafish embryos were performed using a Leica DMI4000 B inverted microscope (Leica, Wetzlar, Germany), equipped with a digital camera (DFC 350FX; Leica) and 5× objective (HCX PL FLUOTAR, 5.0×0.15 DRY). adh8a mRNA injected were exposed to 5mg/L allyl alcohol in 24-well plates (2 embryos per 2 ml). A constant temperature of 26°C was maintained with a heated stage insert. Embryos were imaged by bright filed every 20 min for 20 h. Images were analyzed using LAS AF software (Leica, Wetzlar, Germany). Video was exported using 3 frames per second.

adult zebrafish = tested on: adult zebrafish; set-up: method as in PMID 22835061; conditions: adult zebrafish ref 18; cited from earlier work
[6] = set-up: method as in PMID 22835061; conditions: cited from earlier work; for measured concentration as % of nominal concentration: 24-well plates ref 18
[7] = adh8a mRNA injected, exposure 8-56 h, with chorion, crystallization dish, strain OBI
[8] = adh8b mRNA injected, exposure 8-56 h, with chorion, crystallization dish, strain OBI
[9] = gfp mRNA injected, exposure 8-56 h, with chorion, crystallization dish, strain OBI

## O=[N+]([O-])c1ccc(O)cc1 [4-Nitrophenol]
[1]; adh8a mRNA injected
  LC50: 9.65 µg/mL (≈ 69.4 µM)
[1]; adh8a/b mRNA (1:1) injected
  LC50: 10.2 µg/mL (≈ 73.4 µM)
[1]; adh8b mRNA injected
  LC50: 9.79 µg/mL (≈ 70.4 µM)
[1]; gfp mRNA injected
  LC50: 9.45 µg/mL (≈ 67.9 µM)
[2]
  increase in acute toxicity in response to injection of adh8 mRNA: did not detect any increase
Fathead minnow
  LC50: 0.0448 mg/mL (≈ 322 µM)
Zebrafish embryo; zebrafish embryo ref unpublished data
  LC50: 12.0 mg/L (≈ 86.3 µM)
[3]
  Henry's law coefficient: 4.15*10^−10 atm*m^3/mol

## CCO [ethanol]
[2]; [7]
  LC50: 18.57 g/L
[2]; adh8a/b mRNA injected, exposure 8-56 h, with chorion, crystallization dish, strain OBI
  LC50: 17.78 g/L
[2]; [8]
  LC50: 16.31 g/L
[2]; [9]
  LC50: 19.17 g/L
[2]
  increase in acute toxicity in response to injection of adh8 mRNA: did not detect any increase
Fathead minnow; adult fish
  LC50: 14.7 mg/mL (≈ 319000 µM)
[3]
  Henry's law coefficient: 5.62*10^−6 atm*m^3/mol

## C=CCO [allyl alcohol, Allyl alcohol]
Zebrafish embryos; 72-120 hpf vs earlier exposure periods
  fold lower LC50 for exposure from 72-120 hpf compared with earlier stages: 3 fold
Zebrafish embryos; 48 h exposures
  sublethal malformations in exposed embryos: No sublethal malformations were observed
Zebrafish embryos; exposure 2-50 hpf, non-injected, read-out: LC50
  LC50: 8.2 mM
Zebrafish embryos; exposure 2-50 hpf, with chorion, no mRNA injected, 24-well plates, strain WIK
  LC50: 478 mg/L
Zebrafish embryos; exposure 8-56 h, with chorion, non-injected control, crystallization dish, strain OBI
  LC50: 328 mg/L
Zebrafish embryos; exposure 24-72 hpf, with chorion (value paired with 451 mg/L), read-out: LC50
  LC50: 7.7 mM
Zebrafish embryos; exposure 24-72 hpf, with chorion, no mRNA injected, 24-well plates, strain WIK
  LC50: 451 mg/L
Zebrafish embryos; exposure 24-72 hpf, without chorion (manually removed), no mRNA injected, 24-well plates, strain WIK
  LC50: 492 mg/L
Zebrafish embryos; exposure 24-72 hpf, without chorion (value paired with 492 mg/L), read-out: LC50
  LC50: 8.5 mM
Zebrafish embryos; exposure 72-120 hpf, hatched, no mRNA injected, 24-well plates, strain WIK
  LC50: 157 mg/L
Zebrafish embryos; exposure 72-120 hpf, hatched, no mRNA injected, 24-well plates, strain WIK, listed as Allyl alcohol
  LC50: 159 mg/L
Zebrafish embryos; exposure 72-120 hpf, read-out: LC50
  LC50: 2.7 mM
Zebrafish embryos; toxic concentration
  time to coagulation of the embryos: ≤ 24 h
Zebrafish embryos; zebrafish embryos vs adult fish
  fold higher toxic concentrations (lower toxicity) in embryos compared to adult fish: about 1000 fold
[2]; adh8a mRNA injected embryos, read-out: LC50
  LC50: 13.4 µM
[2]; [7]
  LC50: 0.00078 g/L
[2]; adh8a/b mRNA (1:1) injected, exposure 8-56 h, with chorion, crystallization dish, strain OBI
  LC50: 0.00211 g/L
[2]; [8]
  LC50: 0.166 g/L
[2]; adh8b mRNA injections
  fold reduction of LC50 by adh8b mRNA injection: 2.5 fold
[2]; compared to gfp-injected or non-injected embryos
  fold reduction of LC50 by adh8a mRNA injection: more than 500 fold
[2]; [9]
  LC50: 0.436 g/L
[4]; adh8a mRNA injected embryos
  allyl alcohol detection in embryos by GC-MS: no allyl alcohol was found; also recorded: below the limit of detection
[4]; adh8a mRNA injected, 0.5 mg/L nominal, 8-26 hpf, Repl. 1-3, n.d. = not detectable
  internal allyl alcohol concentration: 0 pg/embryo
[4]; adh8a-injected embryos
  internal allyl alcohol level (below the limit of detection): < 4.6 µg/L
[4]; before decline in adh8a-injected embryos
  internal allyl alcohol concentration (range): 0.23-58 ng/embryo
[5]
  time to coagulation of the embryos: 3 to 9 h
Adult zebrafish
  LC50 (adult fish): 0.28 mg/L (≈ 4.82 µM)
Fathead minnow; fathead minnow ref 19
  toxicity level (LC50) in adult fish: 0.32 mg/L
[3]
  Henry's law coefficient: 4.99*10^−6 atm*m^3/mol
[6]; 0 h
  measured concentration as % of nominal concentration: about 80%
[6]; 24-well plates, 48 h ref 18
  geometric mean of measured concentrations as % of nominal concentration: 47%
[6]; within 48 h of exposure
  measured concentration as % of nominal concentration: about 28%

## CC=O [acetaldehyde]
Fathead minnow; adult fish ref 27
  fold higher toxicity compared to the parent compound ethanol: about 435 fold
Zebrafish embryo; zebrafish embryo ref 25
  fold higher toxicity compared to the parent compound ethanol: ~720 fold

## C=CC=O [acrolein]
Zebrafish embryos; exposure 2-50 hpf, with chorion, no mRNA injected, 24-well plates, strain OBI, n = 1
  LC50: 0.42 mg/L
Zebrafish embryos; zebrafish embryos, 2-50 hpf
  fold lower LC50 of acrolein compared with allyl alcohol: ~1000 fold
[4]; adh8a injected embryos exposed to allyl alcohol
  acrolein detection in GC/MS chromatograms: could not detect acrolein
[3]
  Henry's law coefficient: 1.22*10^−4 atm*m^3/mol
